Laboratory results reported in BindingDB's records for doi:10.1016/S0960-894X(97)00408-3 (1997).

Target: 5-hydroxytryptamine receptor 4 (Rattus norvegicus, UniProt Q62758)
Experiment: Agonist activity against serotonin 5-HT4 receptor in rat tunica muscularis mucosae assay

Chain of 5-hydroxytryptamine receptor 4 (Q62758 whole entry): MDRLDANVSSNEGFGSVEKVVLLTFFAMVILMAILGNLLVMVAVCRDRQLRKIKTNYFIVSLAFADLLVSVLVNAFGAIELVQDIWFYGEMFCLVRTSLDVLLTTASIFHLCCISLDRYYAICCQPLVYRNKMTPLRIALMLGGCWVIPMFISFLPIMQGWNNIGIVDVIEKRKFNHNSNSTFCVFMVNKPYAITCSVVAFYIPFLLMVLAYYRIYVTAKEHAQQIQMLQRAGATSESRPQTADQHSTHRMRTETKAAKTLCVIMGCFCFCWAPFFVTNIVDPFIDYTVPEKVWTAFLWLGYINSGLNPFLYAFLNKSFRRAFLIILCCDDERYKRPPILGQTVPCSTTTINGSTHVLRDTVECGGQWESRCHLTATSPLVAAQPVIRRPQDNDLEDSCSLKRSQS

EC50 [nM]	SMILES
382	COc1cc(N)c(Cl)cc1C(=O)NC1C2CC3CC1CN3C2 (configuration not stated) [4-Amino-N-(3-aza-tricyclo[3.3.1.0*3,7*]non-9-yl)-5-chloro-2-methoxy-benzamide]
660	COc1cc(N)c(Cl)cc1C(=O)NCC1C2CC3CC1CN3C2 (configuration not stated) [4-Amino-N-(3-aza-tricyclo[3.3.1.0*3,7*]non-9-ylmethyl)-5-chloro-2-methoxy-benzamide]
